In patent US11208412B2 (DAEGU-GYEONGBUK MEDICAL INNOVATION FOUNDATION, priority 2017, dated 2021):

Key:
Experiment in all cases: Kinase selectivity, DiscoverX scanMAX Kinase assay panel (% control)
Assay type in all cases: binding
[1] = target: T1, kinases of the scanMAX Kinase assay panel (Homo sapiens, UniProt P0C264); settings: kinase SgK110; 1 uM in DMSO
T1 construct: purchased DiscoverX Co. (contract measurement) scanMAX Kinase assay panel
T1 sequence (P0C264 1-359): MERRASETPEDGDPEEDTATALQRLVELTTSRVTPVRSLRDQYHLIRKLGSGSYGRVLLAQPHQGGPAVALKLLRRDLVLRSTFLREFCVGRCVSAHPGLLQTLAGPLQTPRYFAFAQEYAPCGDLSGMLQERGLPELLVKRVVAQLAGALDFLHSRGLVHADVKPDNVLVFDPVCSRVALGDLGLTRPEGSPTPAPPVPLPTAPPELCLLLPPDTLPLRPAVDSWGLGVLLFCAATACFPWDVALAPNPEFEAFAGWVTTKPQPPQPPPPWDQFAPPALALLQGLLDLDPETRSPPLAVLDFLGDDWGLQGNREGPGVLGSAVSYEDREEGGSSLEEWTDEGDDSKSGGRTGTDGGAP
How it was run: (§1)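 A 1 uM DMSO solution of compound was applied across the panel kinases, and results were expressed as % control relative to DMSO (100%) and a positive control (0%).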

[2] = target: T2, kinases of the scanMAX Kinase assay panel (Homo sapiens, UniProt P49841); settings: GSK3B; 1 uM
T2 construct: purchased DiscoverX Co. (contract measurement) scanMAX Kinase assay panel
T2 sequence (P49841 whole entry): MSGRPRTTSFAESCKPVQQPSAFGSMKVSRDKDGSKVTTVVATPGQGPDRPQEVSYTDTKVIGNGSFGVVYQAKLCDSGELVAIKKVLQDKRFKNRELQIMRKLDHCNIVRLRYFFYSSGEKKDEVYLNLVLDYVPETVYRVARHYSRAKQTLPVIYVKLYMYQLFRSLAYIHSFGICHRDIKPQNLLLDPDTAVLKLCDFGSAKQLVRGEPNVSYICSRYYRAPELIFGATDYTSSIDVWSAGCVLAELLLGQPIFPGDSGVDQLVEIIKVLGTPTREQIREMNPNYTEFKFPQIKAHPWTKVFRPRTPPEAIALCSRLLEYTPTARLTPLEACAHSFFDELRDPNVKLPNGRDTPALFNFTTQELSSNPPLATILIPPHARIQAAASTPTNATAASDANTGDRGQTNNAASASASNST
How it was run: as §1

[3] = target: T3, kinases of the scanMAX Kinase assay panel (Homo sapiens, UniProt P57059); settings: kinase SIK; 1 uM in DMSO
T3 construct: purchased DiscoverX Co. (contract measurement) scanMAX Kinase assay panel
T3 sequence (P57059 whole entry): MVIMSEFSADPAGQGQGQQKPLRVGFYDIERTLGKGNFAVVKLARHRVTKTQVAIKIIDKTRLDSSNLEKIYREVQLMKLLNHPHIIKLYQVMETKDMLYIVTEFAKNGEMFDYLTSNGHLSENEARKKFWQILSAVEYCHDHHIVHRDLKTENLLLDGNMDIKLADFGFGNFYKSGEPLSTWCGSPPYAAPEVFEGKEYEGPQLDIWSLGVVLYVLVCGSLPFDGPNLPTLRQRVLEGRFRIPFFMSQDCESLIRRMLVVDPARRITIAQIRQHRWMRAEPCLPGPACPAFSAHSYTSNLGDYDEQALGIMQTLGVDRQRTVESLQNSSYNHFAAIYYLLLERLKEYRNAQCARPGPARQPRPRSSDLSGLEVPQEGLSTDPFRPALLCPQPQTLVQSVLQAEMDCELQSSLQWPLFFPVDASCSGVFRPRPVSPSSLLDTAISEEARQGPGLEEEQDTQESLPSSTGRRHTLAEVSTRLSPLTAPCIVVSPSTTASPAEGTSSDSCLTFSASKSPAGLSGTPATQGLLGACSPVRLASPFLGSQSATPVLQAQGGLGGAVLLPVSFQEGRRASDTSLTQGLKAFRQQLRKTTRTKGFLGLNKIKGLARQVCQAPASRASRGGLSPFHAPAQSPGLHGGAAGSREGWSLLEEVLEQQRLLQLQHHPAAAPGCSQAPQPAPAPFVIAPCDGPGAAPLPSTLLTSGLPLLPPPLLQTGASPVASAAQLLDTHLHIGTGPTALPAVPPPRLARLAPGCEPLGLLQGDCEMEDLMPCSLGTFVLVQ
How it was run: as §1

[4] = target: T4, kinases of the scanMAX Kinase assay panel (Homo sapiens, UniProt P80192); settings: MLK1; 1 uM
T4 construct: purchased DiscoverX Co. (contract measurement) scanMAX Kinase assay panel
T4 sequence (P80192 whole entry): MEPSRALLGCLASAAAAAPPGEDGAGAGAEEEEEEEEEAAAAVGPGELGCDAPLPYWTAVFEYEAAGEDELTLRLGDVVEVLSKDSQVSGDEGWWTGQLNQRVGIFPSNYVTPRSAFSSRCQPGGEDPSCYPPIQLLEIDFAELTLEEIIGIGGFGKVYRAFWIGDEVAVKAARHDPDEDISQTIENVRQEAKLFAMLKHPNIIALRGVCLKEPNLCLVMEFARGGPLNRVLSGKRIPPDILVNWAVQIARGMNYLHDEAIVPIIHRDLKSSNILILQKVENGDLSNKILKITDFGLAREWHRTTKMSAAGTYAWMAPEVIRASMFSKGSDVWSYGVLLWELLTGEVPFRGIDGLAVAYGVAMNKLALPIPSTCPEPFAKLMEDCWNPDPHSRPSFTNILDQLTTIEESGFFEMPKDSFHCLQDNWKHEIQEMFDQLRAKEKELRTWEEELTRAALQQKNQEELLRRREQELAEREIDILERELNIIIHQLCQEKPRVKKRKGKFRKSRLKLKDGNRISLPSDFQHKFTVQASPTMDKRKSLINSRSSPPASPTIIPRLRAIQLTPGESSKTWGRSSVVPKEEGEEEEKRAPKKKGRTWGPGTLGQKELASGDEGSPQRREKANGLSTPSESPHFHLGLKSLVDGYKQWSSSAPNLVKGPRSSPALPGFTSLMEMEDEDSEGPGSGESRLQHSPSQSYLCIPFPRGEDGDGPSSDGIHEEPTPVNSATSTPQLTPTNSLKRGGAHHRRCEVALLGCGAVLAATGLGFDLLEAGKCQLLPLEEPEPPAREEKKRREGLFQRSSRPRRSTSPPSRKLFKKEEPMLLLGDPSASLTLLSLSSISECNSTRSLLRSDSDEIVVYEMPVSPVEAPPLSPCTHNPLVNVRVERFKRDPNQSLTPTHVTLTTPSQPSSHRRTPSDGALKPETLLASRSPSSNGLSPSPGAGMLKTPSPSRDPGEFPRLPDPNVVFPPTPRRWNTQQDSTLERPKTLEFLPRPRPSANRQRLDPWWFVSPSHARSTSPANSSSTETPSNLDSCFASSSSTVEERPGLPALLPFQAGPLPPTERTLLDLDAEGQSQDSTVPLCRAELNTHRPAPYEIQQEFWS
How it was run: as §1

[5] = target: T5, kinases of the scanMAX Kinase assay panel (Homo sapiens, UniProt Q8NE63); settings: HIPK4; 1 uM
T5 construct: purchased DiscoverX Co. (contract measurement) scanMAX Kinase assay panel
T5 sequence (Q8NE63 1-616): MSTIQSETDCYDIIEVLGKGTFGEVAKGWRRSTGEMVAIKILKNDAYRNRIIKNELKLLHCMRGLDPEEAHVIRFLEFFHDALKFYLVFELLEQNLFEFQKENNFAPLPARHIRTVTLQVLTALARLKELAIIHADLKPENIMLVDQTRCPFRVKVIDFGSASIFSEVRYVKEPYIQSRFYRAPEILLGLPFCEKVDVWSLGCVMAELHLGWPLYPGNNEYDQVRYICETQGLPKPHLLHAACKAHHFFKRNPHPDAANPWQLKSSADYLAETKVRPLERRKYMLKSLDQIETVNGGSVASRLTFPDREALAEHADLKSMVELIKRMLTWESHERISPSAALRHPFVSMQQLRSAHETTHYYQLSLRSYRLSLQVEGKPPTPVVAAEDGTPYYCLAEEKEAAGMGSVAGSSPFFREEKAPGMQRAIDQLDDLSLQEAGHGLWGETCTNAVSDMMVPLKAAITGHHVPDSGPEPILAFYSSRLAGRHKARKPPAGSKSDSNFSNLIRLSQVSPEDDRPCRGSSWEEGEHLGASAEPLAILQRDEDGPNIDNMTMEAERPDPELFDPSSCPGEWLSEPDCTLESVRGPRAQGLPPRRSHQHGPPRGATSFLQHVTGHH
How it was run: as §1

[6] = target: T6, kinases of the scanMAX Kinase assay panel (Homo sapiens, UniProt Q8TD08); settings: ERK8; 1 uM
T6 construct: purchased DiscoverX Co. (contract measurement) scanMAX Kinase assay panel
T6 sequence (Q8TD08 1-544): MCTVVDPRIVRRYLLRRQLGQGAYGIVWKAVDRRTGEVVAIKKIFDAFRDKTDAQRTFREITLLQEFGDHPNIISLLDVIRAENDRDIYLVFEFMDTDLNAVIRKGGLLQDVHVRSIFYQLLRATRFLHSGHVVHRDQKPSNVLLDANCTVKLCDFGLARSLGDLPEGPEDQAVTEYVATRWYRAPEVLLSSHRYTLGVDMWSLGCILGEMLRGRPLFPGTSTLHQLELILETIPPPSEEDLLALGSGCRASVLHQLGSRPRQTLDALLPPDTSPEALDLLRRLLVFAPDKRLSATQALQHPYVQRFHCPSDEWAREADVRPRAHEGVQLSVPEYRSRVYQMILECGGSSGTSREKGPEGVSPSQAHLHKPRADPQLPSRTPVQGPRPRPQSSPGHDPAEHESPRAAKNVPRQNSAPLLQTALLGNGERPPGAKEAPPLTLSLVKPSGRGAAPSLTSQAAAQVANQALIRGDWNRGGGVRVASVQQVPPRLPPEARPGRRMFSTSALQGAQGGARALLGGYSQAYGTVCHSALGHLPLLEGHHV
How it was run: as §1

[7] = target: T7, kinases of the scanMAX Kinase assay panel (Homo sapiens, UniProt Q9NRH2); settings: kinase SNRK; 1 uM in DMSO
T7 construct: purchased DiscoverX Co. (contract measurement) scanMAX Kinase assay panel
T7 sequence (Q9NRH2 1-765): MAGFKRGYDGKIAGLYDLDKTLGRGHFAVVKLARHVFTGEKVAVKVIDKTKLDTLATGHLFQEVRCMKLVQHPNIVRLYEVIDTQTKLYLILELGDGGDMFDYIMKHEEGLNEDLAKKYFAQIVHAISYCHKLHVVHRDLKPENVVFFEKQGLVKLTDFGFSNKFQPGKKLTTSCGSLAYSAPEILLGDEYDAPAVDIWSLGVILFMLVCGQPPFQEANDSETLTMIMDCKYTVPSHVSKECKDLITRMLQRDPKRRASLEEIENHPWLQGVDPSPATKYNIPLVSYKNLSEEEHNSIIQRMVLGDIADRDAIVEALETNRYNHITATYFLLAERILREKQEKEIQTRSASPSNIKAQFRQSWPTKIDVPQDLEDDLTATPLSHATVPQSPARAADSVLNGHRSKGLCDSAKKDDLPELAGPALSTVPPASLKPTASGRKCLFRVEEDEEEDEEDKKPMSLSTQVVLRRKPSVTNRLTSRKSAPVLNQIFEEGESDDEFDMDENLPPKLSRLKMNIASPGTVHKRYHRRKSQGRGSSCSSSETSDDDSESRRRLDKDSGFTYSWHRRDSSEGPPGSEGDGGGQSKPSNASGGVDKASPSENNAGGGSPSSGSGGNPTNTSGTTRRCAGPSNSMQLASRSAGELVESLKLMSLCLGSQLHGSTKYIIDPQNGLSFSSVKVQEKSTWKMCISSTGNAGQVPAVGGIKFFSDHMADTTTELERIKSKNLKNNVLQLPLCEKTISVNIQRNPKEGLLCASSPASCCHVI
How it was run: as §1

SMILES	remaining binding at 1 µM [1]	remaining binding at 1 µM [2]	remaining binding at 1 µM [3]	remaining binding at 1 µM [4]	remaining binding at 1 µM [5]	remaining binding at 1 µM [6]	remaining binding at 1 µM [7]
CNc1nc(Nc2ccc(C(=O)N3CCOCC3)cc2OC)nc2[nH]cc(C#N)c12 [Example 1, 2-((2-methoxy-4-(morpholine-4-carbonyl)phenyl)amino)-4-(methylamino)-7H-pyrrolo[2,3-d]pyrimidine-5-carbonitrile]	100%	79%	97%	81%	95%	100%	64%
CC1(Nc2nc(Nc3cnn([C@H]4CCN(C5COC5)C[C@@H]4F)c3Cl)nc3[nH]cc(C#N)c23)CC1 [Example 52, 2-((5-chloro-1-((3S,4S)-3-fluoro-1-(oxetane-3-yl)piperidine-4-yl)-1H-pyrazole-4-yl)amino)((1-methylcyclopropyl)amino)-7H-pyrrolo[2,3-d]pyrimidine-5-carbonitrile]	32%	50%	78%	0.5%	39%	62%	7.6%
CCNc1nc(Nc2ccc(C(=O)N3CCC(N4CCOCC4)CC3)cc2OC)nc2[nH]cc(C(F)(F)F)c12 [Example 104, (4-((4-(ethylamino)-5-(trifluoromethyl)-7H-pyrrolo[2,3-d]pyrimidine-2-yl)amino)-3-methoxyphenyl)(4-morpholinopiperidine-1-yl)methanone]	100%	83%	100%	66%	45%	100%	69%
